Source: patent EP4745138A1, “THIO-GLUTARIMIDO ISOINDOLINONE DERIVATIVE, BIFUNCTIONAL PROTEIN DEGRADER CONTAINING SAME, AND USES THEREOF” (Gluetacs Therapeutics (Shanghai) Co., Ltd., priority 2023, dated 2025)

Target: T1, human Cereblon WT GST-tagged protein (Homo sapiens, UniProt Q96SW2)
T1 construct: purchased CISBIO 64BDCRBNPEH
Test: CRBN-binding affinity, HTRF (CEREBLON BINDING kit)
Details: for inhibition at 0.5 µM: read-out: Inhibition Rate at 0.5 µM (%); for inhibition at 2 µM: read-out: Inhibition Rate at 2 µM (%)
From the text: The CEREBLON BINDING kits (specification: 10,000 tests; product number: Catalog # 64BDCRBNPEH; CISBIO company) was used to determine the CRBN binding ability of the compounds to be tested through a HTRF method (homogeneous time-resolved fluorescence). The specific methods are as follows: • 1. […] Specifically, diluent #9 (1X) solution was used as the diluent, and multiple concentration gradients were set. […] Into the 96-well plate, the diluted test compounds and corresponding detection reagents were added, resulting in final test compound concentrations of 2 µM and 0.5 µM, respectively. […] Then, 2.5 µL of human Cereblon WT GST-tagged protein solution was added to each well. Finally, 5 µL of the thoroughly mixed Thalidomide-Re reagent and GST Eu antibody working solution were added to each of the aforementioned wells. […] The blank control wells were sequentially added with 2.5 µL of diluent #9 (1X) solution, 2.5 µL of PROTAC binding buffer, and 5 µL of thoroughly mixed Thalidomide-Re reagent and GST Eu antibody working solution. • 4.

T1 sequence (Q96SW2 whole entry): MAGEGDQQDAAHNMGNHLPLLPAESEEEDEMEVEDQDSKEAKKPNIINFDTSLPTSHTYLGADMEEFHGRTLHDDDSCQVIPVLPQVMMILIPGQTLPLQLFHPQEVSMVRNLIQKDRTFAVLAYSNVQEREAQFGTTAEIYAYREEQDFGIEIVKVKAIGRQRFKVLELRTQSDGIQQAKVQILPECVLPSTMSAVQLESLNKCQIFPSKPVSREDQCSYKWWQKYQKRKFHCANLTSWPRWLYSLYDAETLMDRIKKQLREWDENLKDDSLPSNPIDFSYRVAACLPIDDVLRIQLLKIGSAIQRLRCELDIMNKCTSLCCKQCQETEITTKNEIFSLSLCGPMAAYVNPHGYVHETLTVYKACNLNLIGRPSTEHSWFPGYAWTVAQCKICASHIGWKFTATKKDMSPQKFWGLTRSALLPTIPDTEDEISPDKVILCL

Row | Structure (SMILES) | inhibition at 0.5 µM [%] | inhibition at 2 µM [%]
1 | Cn1c2ccncc2c2ccc(-c3ccc(N4CCN(Cc5ccc6c(c5)CN(C5CCC(=O)NC5=O)C6=S)CC4)nc3)cc21 (stereo not drawn) [GT-08982, 3-(5-((4-(5-(5-methyl-5H-pyrido[4,3-b]indol-7-yl)pyridin-2-yl)piperazin-1-yl)methyl)-1-thioxoisoindolin-2-yl)piperidine-2,6-dione] | 60 to 80 | 80 to 100
2 | COc1cc(N2CCC(N3CCN(C)CC3)CC2)ccc1Nc1ncc(Cl)c(Nc2ccccc2P(C)(C)=O)n1 [Brigatinib, reference compound] | 0 to 10 | 10 to 20
3 | CN(c1nccnc1CNc1nc(Nc2ccc(N3CCN(Cc4ccc5c(c4)C(=S)N(C4CCC(=O)NC4=O)C5)CC3)cc2)ncc1C(F)(F)F)S(C)(=O)=O (stereo not drawn) [GT-09437, N-(3-(((2-((4-(4-((2-(2,6-dioxopiperidin-3-yl)-3-thioxoisoindolin-5-yl)methyl)piperazin-1-yl)phenyl)amino)-5-(trifluoromethyl)pyrimidin-4-yl)amino)methyl)pyrazin-2-yl)-N-methylmethanesulfonamide] | 40 to 53 | 60 to 80
4 | Cc1cc(S(=O)(=O)N2CCN(Cc3ccc4c(c3)C(=S)N(C3CCC(=O)NC3=O)C4)CC2)ccc1Nc1ncc(Br)c(Nc2cccc(F)c2C(N)=O)n1 (stereo not drawn) [GT-08794, 2-((5-bromo-2-((4-((4-((2-(2,6-dioxopiperidin-3-yl)-3-thioxoisoindolin-5-yl)methyl)piperazin-1-yl)sulfonyl)-2-methylphenyl)amino)pyrimidin-4-yl)amino)-6-fluorobenzamide] | 53 to 60 | 60 to 80
5 | CC(C)(O)c1cc2nc(C3CCN(Cc4ccc5c(c4)CN(C4CCC(=O)NC4=O)C5=S)CC3)sc2cc1NC(=O)c1cccc(C(F)(F)F)n1 (stereo not drawn) [GT-05298, N-(2-(1-((2-(2,6-dioxopiperidin-3-yl)-1-thioxoisoindolin-5-yl)methyl)piperidin-4-yl)-5-(2-hydroxypropan-2-yl)benzo[d]thiazol-6-yl)-6-(trifluoromethyl)picolinamide] | 80 to 100 | 80 to 100
6 | Cc1cc(-c2nc(C(=O)Nc3cc4oc(N5CCOCC5)nc4nc3N3CC[C@@H](O)C3)co2)ccn1 [emavusertib, Emavusertib, reference compound] | 0 to 10 | 0 to 10
7 | O=C1CCC(N2Cc3c(CN4CCN(c5ncc(C(=O)Nc6ccc(OC(F)(F)Cl)cc6)cc5-c5cc[nH]n5)CC4)cccc3C2=S)C(=O)N1 (stereo not drawn) [GT-08775, N-(4-(chlorodifluoromethoxy)phenyl)-6-(4-((2-(2,6-dioxopiperidin-3-yl)-1-thioxoisoindolin-4-yl)methyl)piperazin-1-yl)-5-(1H-pyrazol-3-yl)nicotinamide] | 30 to 40 | 60 to 80
8 | Nc1ncnc2c1c(-c1ccc(Oc3ccccc3)cc1)nn2C1CCN(Cc2ccc3c(c2)C(=S)N(C2CCC(=O)NC2=O)C3)CC1 (stereo not drawn) [GT-09441, 3-(6-((4-(4-amino-3-(4-phenoxyphenyl)-1H-pyrazolo[3,4-d]pyrimidin-1-yl)piperidin-1-yl)methyl)-1-thioxoisoindolin-2-yl)piperidine-2,6-dione] | 40 to 53 | 80 to 100
9 | Nc1nnc(-c2cc(F)ccc2O)cc1N1CC2CCC(C1)N2Cc1ccc2c(c1)C(=S)N(C1CCC(=O)NC1=O)C2 (stereo not drawn) [GT-08791, 3-(6-((3-(3-amino-6-(5-fluoro-2-hydroxyphenyl)pyridazin-4-yl)-3,8-diazabicyclo[3.2.1]octan-8-yl)methyl)-1-thioxoisoindolin-2-yl)piperidine-2,6-dione] | 40 to 53 | 80 to 100
10 | CCCc1cc(C)[nH]c(=O)c1CNC(=O)c1cc(-c2ccc(N3CCN(Cc4ccc5c(c4)CN(C4CCC(=O)NC4=O)C5=S)CC3)nc2)cc2c1cnn2C(C)C (stereo not drawn) [GT-08885, 6-(6-(4-((2-(2,6-dioxopiperidin-3-yl)-1-thioxoisoindolin-5-yl)methyl)piperazin-1-yl)pyridin-3-yl)-1-isopropyl-N-((6-methyl-2-oxo-4-propyl-1,2-dihydropyridin-3-yl)methyl)-1H-indazole-4-carboxamide] | 40 to 53 | 60 to 80
11 | Nc1nnc(-c2cc(F)ccc2O)cc1N1CC2CCC(C1)N2Cc1cccc2c1CN(C1CCC(=O)NC1=O)C2=S (stereo not drawn) [GT-08790, 3-(4-((3-(3-amino-6-(5-fluoro-2-hydroxyphenyl)pyridazin-4-yl)-3,8-diazabicyclo[3.2.1]octan-8-yl)methyl)-1-thioxoisoindolin-2-yl)piperidine-2,6-dione] | 60 to 80 | 80 to 100
12 | CC(C)Nc1cc(-n2ccc3cc(C#N)cnc32)ncc1C(=O)NC1CCN(Cc2ccc3c(c2)CN(C2CCC(=O)NC2=O)C3=S)CC1 (stereo not drawn) [GT-05294, 6-(5-cyano-1H-pyrrolo[2,3-b]pyridin-1-yl)-N-(1-((2-(2,6-dioxopiperidin-3-yl)-1-thioxoisoindolin-5-yl)methyl)piperidin-4-yl)-4-(isopropylamino)nicotinamide] | 60 to 80 | 80 to 100
13 | Nc1nnc(-c2cc(F)ccc2O)cc1N1CCN(Cc2ccc3c(c2)C(=S)N(C2CCC(=O)NC2=O)C3)CC1 (stereo not drawn) [GT-08789, 3-(6-((4-(3-amino-6-(5-fluoro-2-hydroxyphenyl)pyridazin-4-yl)piperazin-1-yl)methyl)-1-thioxoisoindolin-2-yl)piperidine-2,6-dione] | 60 to 80 | 80 to 100
14 | CCN(c1cc(-c2ccc(N3CCN(Cc4ccc5c(c4)CN(C4CCC(=O)NC4=O)C5=S)CC3)cc2)cc(C(=O)NCc2c(C)cc(C)[nH]c2=O)c1C)C1CCOCC1 (stereo not drawn) [GT-08887, N-((4,6-dimethyl-2-oxo-1,2-dihydropyridin-3-yl)methyl)-4'-(4-((2-(2,6-dioxopiperidin-3-yl)-1-thioxoisoindolin-5-yl)methyl)piperazin-1-yl)-5-(ethyl(tetrahydro-2H-pyran-4-yl)amino)-4-methyl-[1,1-biphenyl]-3-carboxamide] | 60 to 80 | 80 to 100
15 | Nc1nnc(-c2cc(F)ccc2O)cc1N1CCN(Cc2ccc3c(c2)CN(C2CCC(=O)NC2=O)C3=S)CC1 (stereo not drawn) [GT-08712, 3-(5-((4-(3-amino-6-(5-fluoro-2-hydroxyphenyl)pyridazin-4-yl)piperazin-1-yl)methyl)-1-thioxoisoindolin-2-yl)piperidine-2,6-dione] | 60 to 80 | 80 to 100
16 | COc1cc2nn(C3CCN(Cc4cccc5c4CN(C4CCC(=O)NC4=O)C5=S)CC3)cc2cc1NC(=O)c1cccc(C(F)(F)F)c1 (stereo not drawn) [GT-09414, N-(2-(1-((2-(2,6-dioxopiperidin-3-yl)-1-thioxoisoindolin-4-yl)methyl)piperidin-4-yl)-6-methoxy-2H-indazol-5-yl)-3-(trifluoromethyl)benzamide] | 20 to 30 | 60 to 80
17 | Nc1ncnc2c1c(-c1ccc(Oc3ccccc3)cc1)nn2C1CCN(Cc2cccc3c2CN(C2CCC(=O)NC2=O)C3=S)CC1 (stereo not drawn) [GT-05074, 3-(4-((4-(4-amino-3-(4-phenoxyphenyl)-1H-pyrazolo[3,4-d]pyrimidin-1-yl)piperidin-1-yl)methyl)-1-thioxoisoindolin-2-yl)piperidine-2,6-dione] | 40 to 53 | 60 to 80
18 | COC1CCN(c2nccc(Nc3cc4c(cn3)c(N3CCN(Cc5cccc6c5CN(C5CCC(=O)NC5=O)C6=S)CC3)nn4C(C)C)n2)CC1 (stereo not drawn) [GT-08759, 3-(4-((4-(1-isopropyl-6-((2-(4-methoxypiperidin-1-yl)pyrimidin-4-yl)amino)-1H-pyrazolo[4,3-c]pyridin-3-yl)piperazin-1-yl)methyl)-1-thioxoisoindolin-2-yl)piperidine-2,6-dione] | 30 to 40 | 60 to 80
19 | O=C1CCC(N2Cc3cc(CN4CCN(c5ccc(-c6cc(F)c7c(c6)C(=O)N(C(C(=O)Nc6nccs6)c6ncn8c6CCC8)C7)cc5)CC4)ccc3C2=S)C(=O)N1 (stereo not drawn) [GT-09423, 2-(6,7-dihydro-5H-pyrrolo[1,2-c]imidazol-1-yl)-2-(6-(4-(4-((2-(2,6-dioxopiperidin-3-yl)-1-thioxoisoindolin-5-yl)methyl)piperazin-1-yl)phenyl)-4-fluoro-1-oxoisoindolin-2-yl)-N-(thiazol-2-yl)acetamide] | 53 to 60 | 60 to 80
20 | Nc1nc(Nc2ccc(S(=O)(=O)N3CCN(Cc4ccc5c(c4)C(=S)N(C4CCC(=O)NC4=O)C5)CC3)cc2)nn1C(=O)c1c(F)cccc1F (stereo not drawn) [GT-08796, 3-(6-((4-((4-((5-amino-1-(2,6-difluorobenzoyl)-1H-1,2,4-triazol-3-yl)amino)phenyl)sulfonyl)piperazin-1-yl)methyl)-1-thioxoisoindolin-2-yl)piperidine-2,6-dione] | 80 to 100 | 80 to 100
21 | CN(C)C(=O)c1cc2cnc(Nc3ccc(N4CCN(Cc5ccc6c(c5)C(=S)N(C5CCC(=O)NC5=O)C6)CC4)cn3)nc2n1C1CCCC1 (stereo not drawn) [GT-09427, 7-cyclopentyl-2-((5-(4-((2-(2,6-dioxopiperidin-3-yl)-3-thioxoisoindolin-5-yl)methyl)piperazin-1-yl)pyridin-2-yl)amino)-N,N-dimethyl-7H-pyrrolo[2,3-d]pyrimidine-6-carboxamide] | 60 to 80 | 80 to 100
